ChEMBL document CHEMBL3301562, “MMV Box screening against Plasmodium falciparum protein kinases and aminoacyl tRNA synthetases”

Experiments:
Assay type in all cases: functional
[1] = molecular target: T1, Cdk-related protein kinase 6 (Plasmodium falciparum, UniProt O77239); experiment: Final concentrations were 1.5 uM ATP, 5 mM MnCl2, and 15 ug/ml PK6 in a buffer of 100 mM Tris-HCl (pH 7.5). 50 ug/mL MBP was provided as the substrate; 10 uM staurosporine was used as a control inhibitor. Incubation time was 3 hours and 40 minutes.The catalytic activity of each kinase was considered proportional to ATP consumed, as determined from measurements of residual [ATP] with the luciferase-based reagent Kinase-Glo (Promega) following incubation. Luminescence (proportional to residual [ATP]) was measured on the plate readers FLx800 (BioTek Instruments, Winooski, VT, USA) and MicroBeta2.
T1 sequence (O77239 whole entry): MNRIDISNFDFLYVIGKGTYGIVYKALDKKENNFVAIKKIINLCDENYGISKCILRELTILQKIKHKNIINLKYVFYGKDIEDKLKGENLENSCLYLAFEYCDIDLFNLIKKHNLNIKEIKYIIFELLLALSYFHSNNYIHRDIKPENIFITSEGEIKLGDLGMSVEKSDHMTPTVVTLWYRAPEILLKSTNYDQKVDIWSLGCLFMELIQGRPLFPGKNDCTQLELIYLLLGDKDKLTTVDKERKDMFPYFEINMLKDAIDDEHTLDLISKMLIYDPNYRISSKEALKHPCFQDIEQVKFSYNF

[2] = molecular target: T2, Putative uncharacterized protein pk7 (Plasmodium falciparum, UniProt O96214); experiment: Final concentrations were 1 uM ATP, 2 mM DTT, 20 mM MgCl2, 2 mM MnCl2, 0.01% BSA, and 6 ug/ml PK7, in a buffer of 20 mM Tris-HCl (pH 7.5). The enzyme itself was the only substrate present (since autophosphorylation occurs); 100 uM 1NA-PP1 was used as a control inhibitor. Incubation time was 3 hours.
T2 sequence (O96214 whole entry): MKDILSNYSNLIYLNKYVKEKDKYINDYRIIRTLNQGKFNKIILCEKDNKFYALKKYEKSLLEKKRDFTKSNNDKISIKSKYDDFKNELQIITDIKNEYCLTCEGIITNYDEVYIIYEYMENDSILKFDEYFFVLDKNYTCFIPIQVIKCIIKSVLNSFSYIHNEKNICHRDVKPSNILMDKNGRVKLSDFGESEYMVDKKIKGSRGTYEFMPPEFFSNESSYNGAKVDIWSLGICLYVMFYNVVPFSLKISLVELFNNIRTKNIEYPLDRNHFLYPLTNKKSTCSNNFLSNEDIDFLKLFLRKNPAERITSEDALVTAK

[3] = molecular target: T3, Mitogen-activated protein kinase (Plasmodium falciparum, UniProt Q25917); experiment: Final concentrations were 1 uM ATP, 0.5 mM DTT, 1 mM MgCl2, 0.5 mg/mL BSA, and 10 ug/ml MAP2 in a buffer of 50 mM HEPES (pH 7.0). 0.5 mg/mL histone III-S served as the substrate (13); 100 uM AMP-PNP, an ATP analog, was used as a control inhibitor. Incubation time was 4 hours.
T3 sequence (Q25917 whole entry): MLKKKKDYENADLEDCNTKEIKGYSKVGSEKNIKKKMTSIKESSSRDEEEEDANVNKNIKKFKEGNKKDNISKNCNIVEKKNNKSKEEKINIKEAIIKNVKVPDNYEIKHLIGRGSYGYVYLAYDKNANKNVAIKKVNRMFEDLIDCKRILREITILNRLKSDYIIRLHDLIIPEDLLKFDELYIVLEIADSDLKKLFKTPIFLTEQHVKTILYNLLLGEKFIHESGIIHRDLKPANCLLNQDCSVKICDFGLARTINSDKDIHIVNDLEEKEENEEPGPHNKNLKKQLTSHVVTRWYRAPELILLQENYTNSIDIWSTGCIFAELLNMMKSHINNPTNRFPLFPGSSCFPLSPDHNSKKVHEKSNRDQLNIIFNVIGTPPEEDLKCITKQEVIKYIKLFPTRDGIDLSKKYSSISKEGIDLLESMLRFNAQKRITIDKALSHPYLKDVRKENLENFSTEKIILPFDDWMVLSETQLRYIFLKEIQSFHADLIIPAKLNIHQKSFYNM

[4] = molecular target: Calcium-dependent protein kinase 1 (Plasmodium falciparum, UniProt P62344); experiment: MMV: CDPK1 Protein kinase inhibition assay using recombinant PfCDPK1, syntide 2 peptide substrate, ATP and KinaseGlo to measure % inhibition at 1 uM MMV box compound.
[5] = molecular target: T4, Calcium-dependent protein kinase 4 (Plasmodium falciparum (isolate 3D7), UniProt Q8IBS5); experiment: MMV: CDPK4 Protein kinase inhibition assay using recombinant PfCDPK4, syntide2 peptide substrate, ATP and KinaseGlo to measure % inhibition at 1 uM MMV box compound.
T4 sequence (Q8IBS5 whole entry): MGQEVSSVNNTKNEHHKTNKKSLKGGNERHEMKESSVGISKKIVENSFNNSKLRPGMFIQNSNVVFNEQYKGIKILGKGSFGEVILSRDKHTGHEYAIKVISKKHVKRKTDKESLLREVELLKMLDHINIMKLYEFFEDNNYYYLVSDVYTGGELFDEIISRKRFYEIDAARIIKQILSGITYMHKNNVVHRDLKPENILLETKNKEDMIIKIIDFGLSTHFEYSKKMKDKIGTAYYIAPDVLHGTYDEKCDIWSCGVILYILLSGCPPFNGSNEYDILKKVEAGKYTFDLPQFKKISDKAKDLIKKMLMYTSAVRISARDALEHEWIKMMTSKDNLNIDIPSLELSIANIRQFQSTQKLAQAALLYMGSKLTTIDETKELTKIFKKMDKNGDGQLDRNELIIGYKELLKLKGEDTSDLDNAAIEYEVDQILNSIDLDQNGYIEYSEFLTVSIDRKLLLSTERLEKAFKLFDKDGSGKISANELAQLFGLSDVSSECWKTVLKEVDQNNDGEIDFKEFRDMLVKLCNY

Proline--tRNA ligase = molecular target: T5, Proline--tRNA ligase (Plasmodium falciparum (isolate 3D7), UniProt Q8I5R7); experiment: MMV: ProRS recombinant Plasmodium falciparum Prolyl-tRNA-synthetase, assay with yeast tRNA, ATP, and proline and 3 uM MMV malaria box compound, assay read out with kinase glo as % inhibition.
T5 sequence (Q8I5R7 whole entry): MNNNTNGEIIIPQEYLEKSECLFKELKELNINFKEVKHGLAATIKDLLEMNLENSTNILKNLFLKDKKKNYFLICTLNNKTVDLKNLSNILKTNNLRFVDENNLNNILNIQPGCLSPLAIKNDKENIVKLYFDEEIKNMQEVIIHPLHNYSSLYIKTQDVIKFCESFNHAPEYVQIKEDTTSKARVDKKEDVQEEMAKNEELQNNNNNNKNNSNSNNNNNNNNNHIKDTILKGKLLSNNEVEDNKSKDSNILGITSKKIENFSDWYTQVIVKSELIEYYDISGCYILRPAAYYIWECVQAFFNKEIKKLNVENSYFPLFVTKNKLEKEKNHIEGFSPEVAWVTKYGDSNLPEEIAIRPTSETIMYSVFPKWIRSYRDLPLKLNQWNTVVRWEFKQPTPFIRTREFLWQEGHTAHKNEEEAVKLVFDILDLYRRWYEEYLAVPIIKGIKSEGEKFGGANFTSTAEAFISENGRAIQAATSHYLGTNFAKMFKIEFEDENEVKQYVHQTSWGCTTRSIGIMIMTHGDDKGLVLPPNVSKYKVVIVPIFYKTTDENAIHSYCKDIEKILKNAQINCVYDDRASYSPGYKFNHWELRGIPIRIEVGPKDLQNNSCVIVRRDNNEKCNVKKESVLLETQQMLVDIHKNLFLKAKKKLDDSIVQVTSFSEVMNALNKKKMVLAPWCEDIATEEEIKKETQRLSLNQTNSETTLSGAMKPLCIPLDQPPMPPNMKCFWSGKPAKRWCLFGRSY

Lysine--tRNA ligase = Lysine--tRNA ligase (Plasmodium falciparum (isolate 3D7), UniProt Q8IDJ8); experiment: MMV: KRS recombinant Plasmodium falciparum Lysyl-tRNA-synthetase, assay with yeast tRNA, ATP, and lysine and 3 uM MMV malaria box compound, assay read out with kinase glo as % inhibition.
Lysine--tRNA ligase, sequence (Q8IDJ8 whole entry): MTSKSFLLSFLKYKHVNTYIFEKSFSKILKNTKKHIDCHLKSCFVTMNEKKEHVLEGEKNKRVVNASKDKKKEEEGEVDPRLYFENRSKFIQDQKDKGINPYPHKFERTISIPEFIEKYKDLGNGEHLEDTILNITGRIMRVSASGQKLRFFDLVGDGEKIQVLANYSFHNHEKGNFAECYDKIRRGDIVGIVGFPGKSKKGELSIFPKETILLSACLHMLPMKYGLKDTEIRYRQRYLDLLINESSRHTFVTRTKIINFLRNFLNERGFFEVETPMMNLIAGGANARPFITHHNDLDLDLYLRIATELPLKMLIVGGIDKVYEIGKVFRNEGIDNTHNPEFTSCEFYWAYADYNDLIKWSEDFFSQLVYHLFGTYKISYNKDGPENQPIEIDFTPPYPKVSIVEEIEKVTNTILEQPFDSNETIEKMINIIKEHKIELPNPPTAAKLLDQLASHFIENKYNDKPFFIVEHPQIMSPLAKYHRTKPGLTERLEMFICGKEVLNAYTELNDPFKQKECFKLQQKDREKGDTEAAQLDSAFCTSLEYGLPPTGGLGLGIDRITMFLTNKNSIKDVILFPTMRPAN

Calcium-dependent protein kinase 1, sequence (P62344 whole entry): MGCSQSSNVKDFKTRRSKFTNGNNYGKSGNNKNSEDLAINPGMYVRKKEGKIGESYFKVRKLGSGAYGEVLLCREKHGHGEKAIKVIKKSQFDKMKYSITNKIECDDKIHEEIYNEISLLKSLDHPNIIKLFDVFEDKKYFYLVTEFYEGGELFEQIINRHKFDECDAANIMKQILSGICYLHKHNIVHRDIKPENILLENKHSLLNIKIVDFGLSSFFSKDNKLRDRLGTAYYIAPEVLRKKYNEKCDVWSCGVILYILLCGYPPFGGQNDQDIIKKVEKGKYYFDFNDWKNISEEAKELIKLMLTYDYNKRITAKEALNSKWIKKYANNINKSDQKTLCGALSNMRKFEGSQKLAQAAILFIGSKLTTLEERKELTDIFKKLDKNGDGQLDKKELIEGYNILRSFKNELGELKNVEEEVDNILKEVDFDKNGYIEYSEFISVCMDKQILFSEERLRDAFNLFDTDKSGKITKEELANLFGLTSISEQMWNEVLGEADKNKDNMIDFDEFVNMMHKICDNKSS

SMILES	IC50 [1]	IC50 [2]	IC50 [3]	IC50 [4]	IC50 [5]	IC50 (Proline--tRNA ligase)	IC50 (Lysine--tRNA ligase)
CCOC(=O)C1=C(C)N=c2sc(=Cc3ccccc3O)c(=O)n2C1c1ccc(OC)c2ccccc12 (stereo not given)	> 1000 nM	> 1000 nM	> 1000 nM	> 1000 nM	> 1000 nM	> 2500 nM	> 2500 nM
FC(F)(F)c1cccc(Nc2nc3ccccc3nc2Nc2cccc(C(F)(F)F)c2)c1	> 1000 nM	> 1000 nM	> 1000 nM	> 1000 nM	> 1000 nM	> 2500 nM	> 2500 nM
O=c1cc(NC2CCN(CCCc3ccccc3)CC2)c2cc(Cl)ccc2o1	> 1000 nM	> 1000 nM	> 1000 nM	> 1000 nM	> 1000 nM	> 2500 nM	> 2500 nM
CC1CCN(Cc2c(O)ccc3cc(-c4nc5ccccc5s4)c(=O)oc23)CC1	> 1000 nM	> 1000 nM	> 1000 nM	> 1000 nM	> 1000 nM	> 2500 nM	> 2500 nM
Cc1ccc2cc3c(N)c4c(C)ccc(C)c4nc3nc2c1	> 1000 nM	> 1000 nM	> 1000 nM	> 1000 nM	> 1000 nM	> 2500 nM	> 2500 nM
CC(C)CCNCC(O)Cn1c2ccccc2c2ccccc21 (stereo not given)	> 1000 nM	> 1000 nM	> 1000 nM	> 1000 nM	> 1000 nM	> 2500 nM	> 2500 nM
COc1ccc(C2C(C(=O)Nc3cccc(OC)c3)c3ccccc3C(=O)N2C2CCCCC2)cc1 (stereo not given)	> 1000 nM	> 1000 nM	> 1000 nM	> 1000 nM	> 1000 nM	> 2500 nM	> 2500 nM
O=C(Nc1ccc(C23CC4CC(CC(c5ccccc5)(C4)C2)C3)cc1)c1cccs1	> 1000 nM	> 1000 nM	> 1000 nM	> 1000 nM	> 1000 nM	> 2500 nM	> 2500 nM
CCOC(=O)c1cnc2c(C)cccc2c1Nc1ccc(C(C)=O)cc1	> 1000 nM	> 1000 nM	> 1000 nM	> 1000 nM	> 1000 nM	> 2500 nM	> 2500 nM
Cc1ccc(C2CC(C(F)(F)F)n3nc(C(=O)N4CCN(C(c5ccccc5)c5ccccc5)CC4)cc3N2)cc1 (stereo not given)	> 1000 nM	> 1000 nM	> 1000 nM	> 1000 nM	> 1000 nM	> 2500 nM	> 2500 nM
Cc1ccc2nc(C)cc(Nc3cccc(C(F)(F)F)c3)c2c1	> 1000 nM	> 1000 nM	> 1000 nM	> 1000 nM	> 1000 nM	> 2500 nM	> 2500 nM
COc1cccc(C(=O)NC(c2ccc(C)cc2)c2cc(Cl)c3cccnc3c2O)c1 (stereo not given)	> 1000 nM	> 1000 nM	> 1000 nM	> 1000 nM	> 1000 nM	> 2500 nM	> 2500 nM
COc1ccc(-c2cc(=O)oc3c4c(ccc23)OCN(Cc2ccc(F)cc2)C4)cc1	> 1000 nM	> 1000 nM	> 1000 nM	> 1000 nM	> 1000 nM	> 2500 nM	> 2500 nM
CCOc1ccc2c(c1)CN(Cc1ccc(Cl)cc1)CO2	> 1000 nM	> 1000 nM	> 1000 nM	> 1000 nM	> 1000 nM	> 2500 nM	> 2500 nM
COc1ccc2c(c1OC)C(=O)N1c3ccccc3N=C(c3ccc(C)cc3)CC21 (stereo not given)	> 1000 nM	> 1000 nM	> 1000 nM	> 1000 nM	> 1000 nM	> 2500 nM	> 2500 nM
CCCCCCc1cc(O)c2c3c(c(=O)oc2c1)CCC(C)C3 (stereo not given)	> 1000 nM	> 1000 nM	> 1000 nM	> 1000 nM	> 1000 nM	> 2500 nM	> 2500 nM
COc1ccc(CCNC(=O)c2cc(S(=O)(=O)N3CC(C)CC(C)C3)ccc2Sc2ccc(F)cc2)cc1OC (stereo not given)	> 1000 nM	> 1000 nM	> 1000 nM	> 1000 nM	> 1000 nM	> 2500 nM	> 2500 nM
CCOc1ccc(Nc2c3ccccc3nc3ccccc23)cc1	> 1000 nM	> 1000 nM	> 1000 nM	> 1000 nM	> 1000 nM	> 2500 nM	> 2500 nM
CC1=C(CC(=O)c2cccc([N+](=O)[O-])c2)C(=O)c2ccccc2C1=O	> 1000 nM	> 1000 nM	> 1000 nM	> 1000 nM	> 1000 nM	> 2500 nM	> 2500 nM
COc1ccccc1N1C(=N)SC(=Cc2ccc(OCc3ccccc3F)cc2)C1=O	> 1000 nM	> 1000 nM	> 1000 nM	> 1000 nM	> 1000 nM	> 2500 nM	> 2500 nM
